According to DBAASP:
Values after ≈ are worked out from the molar mass of the structure shown.

Key:
Test in all cases: ≥ marks a high value that may be exact or a test limit, other limits are often not marked, values filed in µg/mL are converted to µM
[1] = test system: Enterococcus faecalis NBRC 3989
[2] = test system: Klebsiella pneumoniae NBRC 3317
[3] = test system: Pseudomonas aeruginosa NBRC 3080
[4] = test system: Staphylococcus epidermidis NBRC 12933
[5] = test system: Bacillus megaterium ATCC 19213
[6] = test system: Bacillus subtilis NBRC 3513
[7] = test system: Escherichia coli NBRC 12734
[8] = test system: Salmonella typhimurium NBRC 12529
[9] = test system: Serratia marcescens NBRC 3046
[10] = test system: Staphylococcus aureus NBRC 12732
[11] = test system: Enterococcus faecalis IP103214
[12] = test system: Aspergillus niger IP218-53
[13] = test system: Cryptococcus neoformans IP960-67
[14] = test system: Staphylococcus aureus IP76-25
[15] = test system: Trichophyton simii IP1063-74
[16] = test system: Nocardia brasiliensis IP16-80
[17] = test system: Aspergillus fumigatus IP1025-70
Escherichia coli IP76-24 = test system: Escherichia coli IP76-24
[18] = test system: Aeromonas caviae IP67-16T
[19] = test system: Saccharomyces cerevisiae IP118079
[20] = test system: Candida albicans IP884-65
[21] = test system: Escherichia coli NIHJ JC-2
[22] = test system: Bacillus subtilis PCI 219
[23] = test system: Staphylococcus aureus FDA 209P
[24] = test system: Pseudomonas aeruginosa U-31
Escherichia coli SBS 363 = test system: Escherichia coli SBS 363
Micrococcus luteus A270 = test system: Micrococcus luteus A270
[25] = test system: Cryptococcus neoformans ATCC 90112
[26] = test system: Trichosporon sp. IOC 4569
[27] = test system: Staphylococcus aureus ATCC 29213
[28] = test system: Pseudomonas aeruginosa ATCC 27853
[29] = test system: Aspergillus fumigatus IOC 4526
[30] = test system: Candida parapsilosis IOC 4564
[31] = test system: Candida tropicalis IOC 4560
Candida krusei IOC 4559 = test system: Candida krusei IOC 4559
[32] = test system: Candida glabrata IOC 4565
[33] = test system: Candida albicans IOC 4558
[34] = test system: Trichophyton rubrum IOC 4527
[35] = test system: Candida albicans ATCC 36802
[36] = test system: Cryptococcus neoformans IOC 4528
[37] = test system: Micrococcus luteus NBRC 12708
Fusarium oxysporum = test system: Fusarium oxysporum
Carnobacterium mobile = test system: Carnobacterium mobile

CC[C@H](C)[C@H](NC(=O)[C@H](C)N)C(=O)N[C@@H](Cc1ccccc1)C(=O)N[C@H](C(=O)N[C@@H](Cc1ccccc1)C(=O)N[C@H](C(=O)N[C@@H](CCCN=C(N)N)C(=O)N[C@@H](Cc1c[nH]c2ccccc12)C(=O)N[C@@H](CC(C)C)C(=O)N[C@@H](CC(C)C)C(=O)N[C@@H](CCCCN)C(=O)N[C@@H](CC(C)C)C(=O)NCC(=O)N[C@@H](Cc1cnc[nH]1)C(=O)N[C@@H](Cc1cnc[nH]1)C(=O)NCC(=O)N[C@@H](CCCN=C(N)N)C(=O)N[C@@H](C)C(=O)N1CCC[C@H]1C(=O)N1CCC[C@H]1C(=O)O)[C@@H](C)CC)[C@@H](C)CC [AIFIFIRWLLKLGHHGRAPP]
MIC [1]: ≥ 128 µM | MIC [2]: ≥ 128 µM | MIC [3]: ≥ 128 µM | MIC [4]: 16 µM (≈ 37.5 µg/mL) | MIC [5]: 4 µM (≈ 9.37 µg/mL) | MIC [6]: 8 µM (≈ 18.7 µg/mL) | MIC [7]: ≥ 128 µM | MIC [8]: ≥ 128 µM | MIC [9]: ≥ 128 µM | MIC [10]: 2 µM (≈ 4.69 µg/mL)

CC[C@H](C)[C@H](NC(=O)CNC(=O)[C@H](CCCCN)NC(=O)[C@H](CC(C)C)NC(=O)[C@H](CCSC)NC(=O)[C@H](CC(N)=O)NC(=O)[C@H](CCCCN)NC(=O)[C@H](Cc1c[nH]c2ccccc12)NC(=O)[C@H](CC(C)C)NC(=O)[C@H](C)N)C(=O)NCC(=O)N[C@@H](CCCCN)C(=O)N[C@@H](CC(C)C)C(=O)N[C@@H](C)C(=O)NCC(N)=O [ALWKNMLKGIGKLAG]
MIC [11]: 3 µM (≈ 4.8 µg/mL) | MIC [12]: ≥ 40 µM | MIC [13]: 3 µM (≈ 4.8 µg/mL) | MIC [14]: ≥ 150 µM | MIC [15]: 30 µM (≈ 48 µg/mL) | MIC [16]: ≥ 150 µM | MIC [17]: 20 µM (≈ 32 µg/mL) | MIC (Escherichia coli IP76-24): 3 µM (≈ 4.8 µg/mL) | MIC [18]: 3 µM (≈ 4.8 µg/mL) | MIC [19]: 10 µM (≈ 16 µg/mL) | MIC [20]: 20 µM (≈ 32 µg/mL)

CC(C)C[C@H](NC(=O)[C@H](CC(C)C)NC(=O)[C@H](CCCCN)NC(=O)[C@H](CC(C)C)NC(=O)[C@H](CC(C)C)NC(=O)[C@H](CCCCN)NC(=O)[C@H](CCCCN)NC(=O)[C@H](Cc1c[nH]c2ccccc12)NC(=O)[C@H](CC(C)C)NC(=O)[C@H](CCCCN)NC(=O)[C@H](CC(C)C)NC(=O)[C@H](CC(C)C)NC(=O)[C@H](CC(C)C)NC(=O)[C@H](CCCCN)NC(=O)[C@H](CC(C)C)NC(=O)[C@H](CC(C)C)NC(=O)[C@@H](N)CCCCN)C(=O)N[C@@H](CCCCN)C(=O)O [KLLKLLLKLWKKLLKLLK]
MIC [21]: ≥ 44.8 µM | MIC [22]: ≥ 44.8 µM | MIC [23]: ≥ 44.8 µM | MIC [24]: ≥ 44.8 µM

CSCC[C@H](NC(=O)[C@@H](N)CCCCN)C(=O)N[C@@H](CC(=O)O)C(=O)N[C@@H](CO)C(=O)N[C@@H](CCCN=C(N)N)C(=O)N[C@@H](Cc1c[nH]c2ccccc12)C(=O)N[C@@H](CCCN=C(N)N)C(=O)N[C@@H](Cc1c[nH]c2ccccc12)C(=O)N[C@@H](CCCCN)C(=O)N[C@@H](CO)C(=O)N[C@@H](CO)C(=O)N[C@@H](CCCCN)C(=O)N[C@@H](CCCCN)C(=O)O [KMDSRWRWKSSKK]
MIC (Escherichia coli SBS 363): ≥ 46.4 µM | MIC (Micrococcus luteus A270): 4.92 µM (≈ 8.49 µg/mL) | MIC [25]: 4.92 µM (≈ 8.49 µg/mL) | MIC [26]: ≥ 32.8 µM | MIC [27]: > 23.2 µM | MIC [28]: 16.4 µM (≈ 28.3 µg/mL) | MIC [29]: ≥ 58 µM | MIC [30]: ≥ 46.4 µM | MIC [31]: ≥ 46.4 µM | MIC (Candida krusei IOC 4559): ≥ 32.8 µM | MIC [32]: ≥ 46.4 µM | MIC [33]: ≥ 46.4 µM | MIC [34]: ≥ 58 µM | MIC [35]: ≥ 58 µM | MIC [36]: 4.92 µM (≈ 8.49 µg/mL)

CC[C@H](C)[C@@H]1NC(=O)[C@H](C)NC(=O)[C@H](CC(C)C)NC(=O)[C@@H]2CSSC[C@@H](C(=O)N[C@@H](CCCN=C(N)N)C(=O)N[C@@H](CCCN=C(N)N)C(=O)O)NC(=O)[C@H](C(C)C)NC(=O)[C@@H]3CSSC[C@H](NC(=O)[C@H](CC(C)C)NC(=O)[C@H](CO)NC(=O)[C@H](Cc4cnc[nH]4)NC(=O)[C@H](CC(N)=O)NC(=O)[C@H](C)NC(=O)[C@H](C)NC(=O)[C@H](Cc4ccccc4)NC(=O)CNC(=O)[C@H](CCCCN)NC(=O)[C@H](C)NC(=O)[C@H](CCC(=O)O)NC(=O)[C@H](Cc4ccccc4)NC(=O)[C@H](CO)NC(=O)[C@H](CC(C)C)NC(=O)[C@H](CC(C)C)NC(=O)[C@H](CC(=O)O)NC(=O)[C@@H](NC(=O)[C@@H](NC(=O)[C@@H](N)CC(C)C)[C@@H](C)O)CSSC[C@H](NC(=O)[C@H](C)NC(=O)CNC(=O)CNC(=O)[C@H](CCCCN)NC(=O)[C@H](CCCN=C(N)N)NC(=O)CNC1=O)C(=O)N[C@@H](CCC(N)=O)C(=O)N[C@@H](CC(N)=O)C(=O)NCC(=O)N[C@@H](C(C)C)C(=O)N3)C(=O)N[C@@H](C)C(=O)N[C@@H](C)C(=O)N[C@@H](Cc1cnc[nH]1)C(=O)N2 [LTCDLLSFEAKGFAANHSLCAAHCLAIGRKGGACQNGVCVCRR]
MIC [37]: 1.12 µM | MIC [10]: 0.112 µM

CSCC[C@H](N)C(=O)N[C@@H](C)C(=O)N[C@@H](C)C(=O)N[C@@H](CCCN=C(N)N)C(=O)N[C@@H](C)C(=O)N[C@@H](C)C(=O)N[C@@H](CCCN=C(N)N)C(=O)N[C@@H](CC(C)C)C(=O)N[C@@H](C)C(=O)N[C@@H](C)C(=O)N[C@@H](CCCN=C(N)N)C(=O)N[C@@H](CC(C)C)C(=O)N[C@@H](C)C(=O)N[C@@H](CCCN=C(N)N)C(=O)N[C@@H](CC(C)C)C(=O)N[C@@H](C)C(=O)N[C@@H](CC(C)C)C(=O)N[C@@H](CCCN=C(N)N)C(=O)N[C@@H](C)C(=O)N[C@@H](CC(C)C)C(=O)O [MAARAARLAARLARLALRAL]
MIC (Fusarium oxysporum): 0.1 µM (≈ 0.214 µg/mL) | MIC (Carnobacterium mobile): 0.0025 µM (≈ 0.00534 µg/mL)
